Reference: paper PMC5496796 (Clinical cancer research : an official journal of the …, 2017)
Entries after “also recorded” stand apart in the source; their conditions may differ. Read-outs that look alike come from different tables or passages of the source.

Legend:
Plasma pharmacokinetics = type: in vivo, human
[1] = tablet form; ref [25]; cited from earlier work
[2] = tested on: acetylated histones (a substrate of class I HDACs); test: Acetylated histones in CD3+ peripheral blood lymphocytes; type: in vivo, human; details: 1 hour after first dose
[3] = tested on: acetylated tubulin (a substrate of HDAC6); details: for change in acetylated tubulin: 1 hour after first dose
[4] = tested on: patients with relapsed or refractory multiple myeloma
[5] = tested on: relapsed or refractory multiple myeloma; test: Treatment response by IMWG criteria, phase 1/2 trial; type: in vivo, human; details: single-agent ricolinostat
[6] = initial 160 mg daily oral dose, cohort 4′, n=14, mean ± SD
[7] = single agent ricolinostat 160 mg
[8] = single agent ricolinostat 240 mg
[9] = single agent ricolinostat, N=15
[10] = single-agent ricolinostat, 15 patients

SMILES: CC(C)C[C@H](NC(=O)[C@H](Cc1ccccc1)NC(=O)c1cnccn1)B(O)O [bortezomib, reference compound]
- time of observed Cmax of bortezomib (first plasma sample) (Plasma pharmacokinetics; after i.v. injection, days 1 and 11, with few exceptions): 15 min
- Cmax (Plasma pharmacokinetics; human, plasma, mean Cmax of bortezomib, day 1 dose, cohort 4′ ([…]^2 with ricolinostat 160 mg QD), n=14): 24 ± 11 ng/mL
- Cmax (Plasma pharmacokinetics; human, plasma, mean Cmax of bortezomib, day 11 dose, cohort 4′ ([…]^2 with ricolinostat 160 mg QD), n=11): 40 ± 15 ng/mL

SMILES: O=C(CCCCCCNC(=O)c1cnc(N(c2ccccc2)c2ccccc2Cl)nc1)NO [ACY-241]
- exposure plateau [1]: does not exhibit the exposure plateau

SMILES: O=C(CCCCCCNC(=O)c1cnc(N(c2ccccc2)c2ccccc2)nc1)NO [ricolinostat]
- drug accumulation upon repeated dosing (Plasma pharmacokinetics; bid dosing): 1.01 ± 0.26
- Cmax (Plasma pharmacokinetics; human, plasma, oral, mean Cmax on day 11, bid administration, n=10): 524 ± 150 ng/mL
- Cmax (Plasma pharmacokinetics; human, plasma, oral, mean Cmax on day 11, qd dosing, n=11): 648 ± 200 ng/mL
- half-life (Plasma pharmacokinetics; human, plasma, po, 160 mg): 3.26 ± 0.46 h
- apparent oral clearance (Plasma pharmacokinetics; [6]): 111 ± 25 L/h
- apparent oral total body volume of distribution (Plasma pharmacokinetics; [6]): 521 ± 166 L
- dose dependence of exposure (Cmax) (Plasma pharmacokinetics; oral 40 to 360 mg, alone or with bortezomib): plateau in exposure at dose levels ≥160 mg; also recorded: no significant increase at doses greater than 160 mg
- median time of maximum observed concentration in plasma (Cmax) (Plasma pharmacokinetics; oral, initial dose and dose on day 11, range 0.25–2.0 hours): 1.0 h
- drug accumulation upon repeated dosing (Plasma pharmacokinetics; qd dosing): 1.10 ± 0.20
- change in histone acetylation [2, 7]: unchanged
- change in histone acetylation [2, 8]: qualitative increase
- acetylated tubulin in peripheral blood lymphocytes, dose dependence ([3]; samples taken during therapy): dose-dependent increases
- change in acetylated tubulin [3, 7]: increase
- change in acetylated tubulin [3, 8]: upward trend
- toxicity, overall ([4]; single agent ricolinostat therapy): neither significant toxicity
- Amylase elevation, All grades [4, 9]: 0 (0) N (%)
- Amylase elevation, Grade 3/4 [4, 9]: 0 (0) N (%)
- Anemia, All grades [4, 9]: 3 (20) N (%)
- Anemia, Grade 3/4 [4, 9]: 1 (7) N (%)
- Blood creatinine elevation, All grades [4, 9]: 5 (33) N (%)
- Blood creatinine elevation, Grade 3/4 [4, 9]: 0 (0) N (%)
- Bronchitis, All grades [4, 9]: 0 (0) N (%)
- Bronchitis, Grade 3/4 [4, 9]: 0 (0) N (%)
- Diarrhea, All grades [4, 9]: 3 (20) N (%)
- Dyspnea, All grades [4, 9]: 1 (7) N (%)
- Dyspnea, Grade 3/4 [4, 9]: 0 (0) N (%)
- Fatigue, All grades [4, 9]: 4 (27) N (%)
- Febrile neutropenia, All grades [4, 9]: 0 (0) N (%)
- Febrile neutropenia, Grade 3/4 [4, 9]: 0 (0) N (%)
- Hyperglycemia, All grades [4, 9]: 0 (0) N (%)
- Hyperglycemia, Grade 3/4 [4, 9]: 0 (0) N (%)
- Hypertension, All grades [4, 9]: 0 (0) N (%)
- Hypertension, Grade 3/4 [4, 9]: 0 (0) N (%)
- Hypokalemia, All grades [4, 9]: 1 (7) N (%)
- Hypokalemia, Grade 3/4 [4, 9]: 0 (0) N (%)
- Hyponatremia, All grades [4, 9]: 1 (7) N (%)
- Hyponatremia, Grade 3/4 [4, 9]: 0 (0) N (%)
- Hypophosphatemia, All grades [4, 9]: 2 (13) N (%)
- Hypophosphatemia, Grade 3/4 [4, 9]: 1 (7) N (%)
- Influenza, All grades [4, 9]: 0 (0) N (%)
- Influenza, Grade 3/4 [4, 9]: 0 (0) N (%)
- Nausea, All grades [4, 9]: 2 (13) N (%)
- Nausea, Grade 3/4 [4, 9]: 0 (0) N (%)
- Neutropenia, All grades [4, 9]: 2 (13) N (%)
- Neutropenia, Grade 3/4 [4, 9]: 1 (7) N (%)
- Peripheral neuropathy, All grades [4, 9]: 0 (0) N (%)
- Peripheral neuropathy, Grade 3/4 [4, 9]: 0 (0) N (%)
- Pneumonia, All grades [4, 9]: 0 (0) N (%)
- Pneumonia, Grade 3/4 [4, 9]: 0 (0) N (%)
- Pulmonary embolism, All grades [4, 9]: 0 (0) N (%)
- Pulmonary embolism, Grade 3/4 [4, 9]: 0 (0) N (%)
- Thrombocytopenia, All grades [4, 9]: 2 (13) N (%)
- Thrombocytopenia, Grade 3/4 [4, 9]: 2 (13) N (%)
- Transaminase elevation, All grades [4, 9]: 1 (7) N (%)
- Transaminase elevation, Grade 3/4 [4, 9]: 0 (0) N (%)
- Vomiting, All grades [4, 9]: 0 (0) N (%)
- Vomiting, Grade 3/4 [4, 9]: 0 (0) N (%)
- dose limiting toxicities ([4]; single-agent dose escalation, 40-360 mg daily): did not observe any dose limiting toxicities
- maximum tolerated dose ([4]; single-agent dose escalation, up to 360 mg qd): did not identify a maximum tolerated dose
- QT interval prolongation, serial triplicate electrocardiograms ([4]; single-agent ricolinostat): no evidence of QT interval prolongation
- discontinuation because of a treatment emergent adverse event ([4]; single-agent ricolinostat): No patient discontinued
- adverse events observed during therapy: anemia [4, 10]: 20%
- adverse events observed during therapy: diarrhea [4, 10]: 20%
- adverse events observed during therapy: fatigue [4, 10]: 27%
- adverse events observed during therapy: renal insufficiency [4, 10]: 33%
- duration of stable disease, median ([5]; 6 patients, range 5 – 30): 11 weeks
- clinical response (minor or partial response) ([5]; 15 patients): nor clinical responses; also recorded: no patients had a minor or partial response
- patients with stable disease ([5]; of the 15 patients): 6
